Assay results: ChEMBL document CHEMBL3870364, “Discovery of Spirocyclic Aldosterone Synthase Inhibitors as Potential Treatments for Resistant Hypertension” (ACS Med Chem Lett, 2017)
≈ marks a conversion by molar mass, not a printed value.

test system: not listed separately; test: Oral bioavailability in Sprague-Dawley rat at 1 mg/kg administered via gavage by LC-MS/MS analysis; type: ADME, organism-based; settings: in vivo

Row | Structure (SMILES) | bioavailability [%]
1 | C[C@](O)(c1cncc(N2CCC3(CCOC3)CC2)c1)C(F)(F)F | 100

test system: not listed separately; test: Half life in Sprague-Dawley rat plasma at 0.5 mg/kg, iv or 1 mg/kg administered via oral gavage by LC-MS/MS analysis; type: ADME, organism-based; settings: not given

Row | Structure (SMILES) | half-life [min]
2 | C[C@](O)(c1cncc(N2CCC3(CCOC3)CC2)c1)C(F)(F)F | 30

test system: CYP11B1 / CYP11B2; test: Selectivity ratio of IC50 for human CYP11B1-8C7 expressed in chinese hamster V79 cells to IC50 for human CYP11B2-CLE9 expressed in chinese hamster V79 cells; type: ADME, cell-based; settings: read-out: Ratio IC50

Row | Structure (SMILES) | selectivity ratio
3 | CC(C)(C)OC(=O)N1CCC2(CCN(c3cncc4ccccc34)CC2)C1 | > 7
4 | c1ccc2c(N3CCC4(CCCO4)CC3)cncc2c1 | 1
5 | C[C@](O)(c1cncc(N2CCC3(CCOC3)CC2)c1)C(F)(F)F | 28
6 | c1ccc2c(N3CCC4(CCCC4)CC3)cncc2c1 | 16
7 | CN1CC2(CCN(c3cncc([C@](C)(O)C(F)(F)F)c3)CC2)CC1=O | 49
8 | CN1CC2(CCN(c3cncc(N4CC(C)(C)C4)n3)CC2)CC1=O | 47
9 | c1ccc2c(N3CCC4(CCCCC4)CC3)cncc2c1 | 3
10 | CC(=O)N1CCC2(CCN(c3cncc4ccccc34)CC2)C1 | 1
11 | c1ccc2c(N3CCC4(CC3)COC4)cncc2c1 | 37
12 | c1ccc2c(N3CCC4(CCNC4)CC3)cncc2c1 | < 1
13 | c1ccc2c(N3CCC4(CCOC4)CC3)cncc2c1 | 24
14 | CN1CC2(CCN(c3cncc4ccccc34)CC2)CC1=O | 9
15 | CC1(C)CN(c2cncc(N3CCC4(CCC(=O)N4)CC3)n2)C1 | 30
16 | CN1CC2(CCN(c3cncc([C@@](C)(O)C(F)(F)F)c3)CC2)CC1=O | > 22
17 | CC1(C)CN(c2cncc(N3CCC4(CC3)CNC(=O)C4)n2)C1 | 51

test system: not listed separately; test: Ratio of IC50 for human CYP17 expressed in African green monkey COS7 cells to IC50 for human CYP11B2-CLE9 expressed in chinese hamster V79 cells; set-up: species or system COS-7; settings: not given

Row | Structure (SMILES) | Ratio IC50
18 | CN1CC2(CCN(c3cncc([C@](C)(O)C(F)(F)F)c3)CC2)CC1=O | >200

biological target: T1, Cytochrome P450 11B2, mitochondrial (Homo sapiens, UniProt P19099); test: Inhibition of human CYP11B2-CLE9 expressed in chinese hamster V79 cells using 11-deoxycorticosterone as substrate preincubated for 1 hr followed by substrate addition measured for 3 hrs by HTRF assay; type: cell-based; settings: not given
T1 sequence (P19099 whole entry): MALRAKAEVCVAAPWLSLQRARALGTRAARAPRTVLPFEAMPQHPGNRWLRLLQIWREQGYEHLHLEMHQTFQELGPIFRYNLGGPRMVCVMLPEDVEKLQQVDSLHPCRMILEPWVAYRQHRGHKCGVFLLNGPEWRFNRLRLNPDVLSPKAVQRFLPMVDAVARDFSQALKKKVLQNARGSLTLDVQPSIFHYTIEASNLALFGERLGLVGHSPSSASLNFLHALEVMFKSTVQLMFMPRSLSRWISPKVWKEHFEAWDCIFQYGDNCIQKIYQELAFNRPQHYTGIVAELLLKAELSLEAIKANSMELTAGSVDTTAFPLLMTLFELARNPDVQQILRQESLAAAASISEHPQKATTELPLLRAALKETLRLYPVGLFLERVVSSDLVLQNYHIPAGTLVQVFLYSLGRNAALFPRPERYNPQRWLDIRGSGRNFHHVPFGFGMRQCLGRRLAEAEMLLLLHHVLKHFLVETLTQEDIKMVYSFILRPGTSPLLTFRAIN

Row | Structure (SMILES) | IC50 [nM]
19 | CC(C)(C)OC(=O)N1CCC2(CCN(c3cncc4ccccc34)CC2)C1 | 1130
20 | c1ccc2c(N3CCC4(CCCO4)CC3)cncc2c1 | 704
21 | C[C@](O)(c1cncc(N2CCC3(CCOC3)CC2)c1)C(F)(F)F | 13
22 | c1ccc2c(N3CCC4(CCCC4)CC3)cncc2c1 | 106
23 | CN1CC2(CCN(c3cncc([C@](C)(O)C(F)(F)F)c3)CC2)CC1=O | 32
24 | CN1CC2(CCN(c3cncc(N4CC(C)(C)C4)n3)CC2)CC1=O | 94
25 | c1ccc2c(N3CCC4(CCCCC4)CC3)cncc2c1 | 554
26 | CC(=O)N1CCC2(CCN(c3cncc4ccccc34)CC2)C1 | 1030
27 | c1ccc2c(N3CCC4(CC3)COC4)cncc2c1 | 42
28 | c1ccc2c(N3CCC4(CCNC4)CC3)cncc2c1 | > 10000
29 | CN1CCC2(CCN(c3cncc4ccccc34)CC2)C1=O | > 8000
30 | c1ccc2c(N3CCC4(CCOC4)CC3)cncc2c1 | 13
31 | CN1CC2(CCN(c3cncc4ccccc34)CC2)CC1=O | 228
32 | CC1(C)CN(c2cncc(N3CCC4(CCC(=O)N4)CC3)n2)C1 | 73
33 | CN1CC2(CCN(c3cncc([C@@](C)(O)C(F)(F)F)c3)CC2)CC1=O | 448
34 | CC1(C)CN(c2cncc(N3CCC4(CC3)CNC(=O)C4)n2)C1 | 34

test system: not listed separately; test: Half life in Sprague-Dawley rat plasma at 1 mg/kg, iv or 2 mg/kg administered via oral gavage by LC-MS/MS analysis; type: ADME, organism-based; settings: not given

Row | Structure (SMILES) | half-life [min]
35 | CN1CC2(CCN(c3cncc([C@](C)(O)C(F)(F)F)c3)CC2)CC1=O | 72

test system: not listed separately; test: Dose normalized AUC in Sprague-Dawley rat at 1 mg/kg administered via oral gavage by LC-MS/MS analysis; type: ADME, organism-based; settings: in vivo

Row | Structure (SMILES) | AUC/dose [µM·kg·h/mg]
36 | C[C@](O)(c1cncc(N2CCC3(CCOC3)CC2)c1)C(F)(F)F | 0.85

test system: not listed separately; test: Solubility of the compound in PBS buffer at pH 2; type: physicochemical; settings: not given

Row | Structure (SMILES) | solubility [µM]
37 | c1ccc2c(N3CCC4(CCCC4)CC3)cncc2c1 | 176 (≈ 46.9 µg/mL)
38 | c1ccc2c(N3CCC4(CCOC4)CC3)cncc2c1 | 196 (≈ 52.6 µg/mL)
39 | CN1CC2(CCN(c3cncc4ccccc34)CC2)CC1=O | 149 (≈ 44 µg/mL)

test system: not listed separately; test: Ratio of IC50 for CYP19A1 (unknown origin) to IC50 for human CYP11B2-CLE9 expressed in chinese hamster V79 cells; settings: not given

Row | Structure (SMILES) | Ratio IC50
40 | CN1CC2(CCN(c3cncc([C@](C)(O)C(F)(F)F)c3)CC2)CC1=O | >200

test system: not listed separately; test: Dose normalized AUC in Sprague-Dawley rat at 2 mg/kg administered via oral gavage by LC-MS/MS analysis; type: ADME, organism-based; settings: in vivo

Row | Structure (SMILES) | AUC/dose [µM·kg·h/mg]
41 | CN1CC2(CCN(c3cncc([C@](C)(O)C(F)(F)F)c3)CC2)CC1=O | 2.15

test system: not listed separately; test: Clearance in Sprague-Dawley rat plasma at 1 mg/kg, iv or 2 mg/kg administered via oral gavage by LC-MS/MS analysis; type: ADME, organism-based; settings: not given

Row | Structure (SMILES) | clearance [mL/min/kg]
42 | CN1CC2(CCN(c3cncc([C@](C)(O)C(F)(F)F)c3)CC2)CC1=O | 24

test system: not listed separately; test: Lipophilicity, logD of compound by HPLC analysis; type: physicochemical; settings: not given

Row | Structure (SMILES) | logD
43 | c1ccc2c(N3CCC4(CCCC4)CC3)cncc2c1 | 5.6
44 | c1ccc2c(N3CCC4(CCOC4)CC3)cncc2c1 | 2.6
45 | CN1CC2(CCN(c3cncc4ccccc34)CC2)CC1=O | 1.6

test system: not listed separately; test: Ratio of IC50 for CYP21 (unknown origin) to IC50 for human CYP11B2-CLE9 expressed in chinese hamster V79 cells; settings: not given

Row | Structure (SMILES) | Ratio IC50
46 | CN1CC2(CCN(c3cncc([C@](C)(O)C(F)(F)F)c3)CC2)CC1=O | >200

biological target: T2, Cytochrome P450 11B1, mitochondrial (Homo sapiens, UniProt P15538); test: Inhibition of human CYP11B1-8C7 expressed in chinese hamster V79 cells using 11-deoxycortisol as substrate preincubated for 1 hr followed by substrate addition measured for 3 hrs by HTRF assay; type: ADME, cell-based; settings: not given
T2 sequence (P15538 whole entry): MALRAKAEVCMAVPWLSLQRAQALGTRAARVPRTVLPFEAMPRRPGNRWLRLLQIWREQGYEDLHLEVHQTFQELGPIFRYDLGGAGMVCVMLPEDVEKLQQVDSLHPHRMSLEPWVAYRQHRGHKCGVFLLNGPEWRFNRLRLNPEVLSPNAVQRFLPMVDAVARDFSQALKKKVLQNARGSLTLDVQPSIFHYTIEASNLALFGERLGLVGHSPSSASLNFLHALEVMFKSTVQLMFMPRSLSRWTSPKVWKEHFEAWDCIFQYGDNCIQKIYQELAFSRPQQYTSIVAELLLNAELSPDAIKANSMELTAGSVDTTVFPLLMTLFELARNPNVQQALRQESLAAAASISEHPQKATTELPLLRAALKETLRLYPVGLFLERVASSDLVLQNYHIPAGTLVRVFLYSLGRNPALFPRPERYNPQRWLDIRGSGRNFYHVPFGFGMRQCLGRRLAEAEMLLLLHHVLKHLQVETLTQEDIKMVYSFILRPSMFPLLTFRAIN

Row | Structure (SMILES) | IC50 [nM]
47 | CC(C)(C)OC(=O)N1CCC2(CCN(c3cncc4ccccc34)CC2)C1 | > 8000
48 | c1ccc2c(N3CCC4(CCCO4)CC3)cncc2c1 | 787
49 | C[C@](O)(c1cncc(N2CCC3(CCOC3)CC2)c1)C(F)(F)F | 355
50 | c1ccc2c(N3CCC4(CCCC4)CC3)cncc2c1 | 1670
51 | CN1CC2(CCN(c3cncc([C@](C)(O)C(F)(F)F)c3)CC2)CC1=O | 1540
52 | CN1CC2(CCN(c3cncc(N4CC(C)(C)C4)n3)CC2)CC1=O | 4460
53 | c1ccc2c(N3CCC4(CCCCC4)CC3)cncc2c1 | 1570
54 | CC(=O)N1CCC2(CCN(c3cncc4ccccc34)CC2)C1 | 1000
55 | c1ccc2c(N3CCC4(CC3)COC4)cncc2c1 | 1590
56 | c1ccc2c(N3CCC4(CCNC4)CC3)cncc2c1 | 1310
57 | CN1CCC2(CCN(c3cncc4ccccc34)CC2)C1=O | > 8000
58 | c1ccc2c(N3CCC4(CCOC4)CC3)cncc2c1 | 387
59 | CN1CC2(CCN(c3cncc4ccccc34)CC2)CC1=O | 2000
60 | CC1(C)CN(c2cncc(N3CCC4(CCC(=O)N4)CC3)n2)C1 | 2190
61 | CN1CC2(CCN(c3cncc([C@@](C)(O)C(F)(F)F)c3)CC2)CC1=O | 10000
62 | CC1(C)CN(c2cncc(N3CCC4(CC3)CNC(=O)C4)n2)C1 | 1740

test system: not listed separately; test: Clearance in Sprague-Dawley rat plasma at 0.5 mg/kg, iv or 1 mg/kg administered via oral gavage by LC-MS/MS analysis; type: ADME, organism-based; settings: not given

Row | Structure (SMILES) | clearance [mL/min/kg]
63 | C[C@](O)(c1cncc(N2CCC3(CCOC3)CC2)c1)C(F)(F)F | 36

test system: not listed separately; test: Intrinsic clearance in Sprague-Dawley rat liver microsomes at 0.3 mM preincubated for 10 mins followed by NADPH addition measured up to 45 mins by LC/MS analysis; type: ADME; settings: read-out: CLH

Row | Structure (SMILES) | CLint scaled at 300 µM [mL/min/kg]
64 | C[C@](O)(c1cncc(N2CCC3(CCOC3)CC2)c1)C(F)(F)F | < 20
65 | c1ccc2c(N3CCC4(CCCC4)CC3)cncc2c1 | 1290
66 | CN1CC2(CCN(c3cncc([C@](C)(O)C(F)(F)F)c3)CC2)CC1=O | < 20
67 | c1ccc2c(N3CCC4(CCOC4)CC3)cncc2c1 | < 20
68 | CN1CC2(CCN(c3cncc4ccccc34)CC2)CC1=O | 76

test system: not listed separately; test: Solubility of the compound in PBS buffer at pH 7; type: physicochemical; settings: not given

Row | Structure (SMILES) | solubility [µM]
69 | c1ccc2c(N3CCC4(CCCC4)CC3)cncc2c1 | 3 (≈ 0.799 µg/mL)
70 | c1ccc2c(N3CCC4(CCOC4)CC3)cncc2c1 | 165 (≈ 44.3 µg/mL)
71 | CN1CC2(CCN(c3cncc4ccccc34)CC2)CC1=O | 167 (≈ 49.3 µg/mL)

test system: not listed separately; test: Oral bioavailability in Sprague-Dawley rat at 2 mg/kg administered via gavage by LC-MS/MS analysis; type: ADME, organism-based; settings: in vivo

Row | Structure (SMILES) | bioavailability [%]
72 | CN1CC2(CCN(c3cncc([C@](C)(O)C(F)(F)F)c3)CC2)CC1=O | 91
